Test results published in US5283180A, “Bioluminescence method for the determination of pesticides” (priority 1992, dated 1994).

These compounds were tested on Silkworm Brain Activities (assay: Bioluminescence pesticide assay: inhibition of silkworm brain activities). Details: pesticide at 25 PPB.
Type: biochemical
Method: (§1) 1. Sample is preincubated with a predetermined quantity (dilution 1:200) of brain preparation for 5 minutes.
(§2) 2. Luciferin acetate (200 pmoles) is added to the incubation mixture for additional 5 minutes.
(§3) 3. A portion of this […] mixture (100 μl) is withdrawn and added to the luciferase and ATP reaction mixture (1 ml).
(§4) 4. Bioluminescence reading for 2-5 seconds is monitored.
(§5) 5. The reading of the pesticide sample is compared to the control sample to quantitate the percent inhibition of the sample (see Tables 3, 4, 5 and 6) .
(§6) Insects are stored from at -20° C. or below. Insect heads are collected by dissection with a scalpel and placed in a 50 ml beaker containing approximately 15 ml ice cold 0.07M phosphate buffer, pH 7.0, containing 1 mM EDTA (ethylenediaminetetra acetic acid) and 1 μM phenylthiourea. The insect heads are gently homogenized at low speed in a Tekmar Tissumizer. Aliquots of this crude extract are transferred to microcentrifuge tubes and centrifuged. The supernatant is retained and applied to a sephadex G-25 column equilibrated with 0.07M phosphate buffer, pH 7.0, containing 1 mM EDTA and 1 μM phenylthiourea. Fractions are collected every 2 minutes and monitored for esterase activity using luciferin acetate as a substrate and measuring bioluminescence. Fractions with esterase activity are pooled and used as the insect head extract for use in the pesticide assay.
(§7) Notes: Brain extracts have been prepared primarily from honey bees, but also has been extracted from silkworm and blowflies. Protein concentration of the bee head extract is between 2 to 5 mg/ml. For the assay, 5 to 10 μl is used per assay.
(§8) 1. To 13×100 mm test tubes add 2 ml 0.07M phosphate buffer, pH 7.0. Add 25 μl positive pesticide control (organophosphate and/or carbamate pesticide), 25 μl water to negative control tube and 25 μl of test sample to another tube. If test sample contains solvent other than water, then use this solvent as the negative control tube.
(§9) 2. Add insert brain extract (5 or 10 μl depending on activity) to the 2 ml incubation mixture in step 1, vortex and incubate at 35° C. in temperature block for 10 minutes. Use timer with alarm to monitor time.
(§10) 3. At 10 minutes, add 25 μl 8.25 μM luciferin acetate solution to 2 ml incubation mixture in step 2. Reset timer to zero and restart timer.
(§11) 4. At 5 minutes, take 100 μl portion from each sample. Use separate pipette tip for each sample and add the 100 μl portion to separate 13×100 mm test tubes containing 1 ml of bioluminescence buffer.
(§12) 5. Add 30 μl ATP solution followed by 30 μl luciferase solution to one of the assay tubes in step 4. Vortex and measure bioluminescence for 2 to 5 seconds. Record value and proceed to the next tubes as above.
6. Zero control bioluminescence reaction will be uninhibited by pesticide and will have a high bioluminescence reading. In the positive samples the esterolitic activity of the bee extract will be inhibited and less luciferin will form giving a low bioluminescent reading. Divide sample reading or positive control by zero control and multiply to 100 to get percent inhibition.

Compound | % Inhibition [%]
COP(=O)(OC)OC=C(Cl)Cl [DDVP] | 100.0
CCOP(=S)(OCC)Oc1cc(C)nc(C(C)C)n1 [Diazinon] | 0
CCOP(=S)(OCC)SCCSCC [Disulfoton] | 25
CCOP(=S)(OCC)SCSP(=S)(OCC)OCC [Ethion] | 77.0
COP(=S)(OC)Oc1ccc([N+](=O)[O-])cc1 [Methyl parathion] | 0
COC(=O)C=C(C)OP(=O)(OC)OC [Mevinphos] | 50
COP(=O)(OC)OC(Br)C(Cl)(Cl)Br (stereo not shown) [Naled] | 98.0
CC[S+]([O-])CCSP(=O)(OC)OC (stereo not shown) [Oxydemeton-methyl] | 0
CCOP(=S)(OCC)SCSCC [Phorate] | 50.5

Each compound was assayed on Bee Brain Activity for Ac-luciferin (esterase activity of bee brain extract) (assay: not given). Details: bee brain extract; 0.0013 ppb pesticide.
Type: biochemical, honey bees
Method: as §1, §2, §3, §4, §5, §6, §7, §8, §9, §10, §11, §12
6. […] In the positive samples the esterolitic activity of the bee extract will be inhibited and less luciferin will form giving a low bioluminescent reading. Divide sample reading or positive control by zero control and multiply to 100 to get percent inhibition.

Compound | % activity [%]
COP(=O)(OC)OC=C(Cl)Cl [DDVP] | 74

Same assay, conditions: bee brain extract; 0.0023 ppb pesticide

Compound | % activity [%]
COP(=O)(OC)OC=C(Cl)Cl [DDVP] | 49

Same assay, conditions: bee brain extract; 0.0028 ppb pesticide

Compound | % activity [%]
COP(=O)(OC)OC=C(Cl)Cl [DDVP] | 60

Same assay, conditions: bee brain extract; 0.0057 ppb pesticide

Compound | % activity [%]
COP(=O)(OC)OC=C(Cl)Cl [DDVP] | 52

Same assay, conditions: bee brain extract; 0.011 ppb pesticide

Compound | % activity [%]
COP(=O)(OC)OC=C(Cl)Cl [DDVP] | 25

Same assay, conditions: bee brain extract; 0.031 ppb pesticide

Compound | % activity [%]
COP(=O)(OC)OC(Br)C(Cl)(Cl)Br (stereo not shown) [Naled] | 50

Same assay, conditions: bee brain extract; 0.125 ppb pesticide

Compound | % activity [%]
COP(=O)(OC)OC(Br)C(Cl)(Cl)Br (stereo not shown) [Naled] | 30

Same assay, conditions: bee brain extract; 0.250 ppb pesticide

Compound | % activity [%]
COP(=O)(OC)OC(Br)C(Cl)(Cl)Br (stereo not shown) [Naled] | 25

Same assay, conditions: bee brain extract; 0.3125 ppb pesticide

Compound | % activity [%]
CCOP(=S)(OCC)SCSP(=S)(OCC)OCC [Ethion] | 84
COC(=O)C=C(C)OP(=O)(OC)OC [Mevinphos] | 64
CC[S+]([O-])CCSP(=O)(OC)OC (stereo not shown) [Oxydemeton-methyl] | 90

Same assay, conditions: bee brain extract; 0.625 ppb pesticide

Compound | % activity [%]
CCOP(=S)(OCC)Oc1nc(Cl)c(Cl)cc1Cl [Chlorpyrifos] | 68
CCOP(=S)(OCC)SCSP(=S)(OCC)OCC [Ethion] | 71
COP(=S)(OC)Oc1ccc([N+](=O)[O-])cc1 [Methyl parathion] | 62
COC(=O)C=C(C)OP(=O)(OC)OC [Mevinphos] | 52
COP(=O)(OC)OC(Br)C(Cl)(Cl)Br (stereo not shown) [Naled] | 29
CC[S+]([O-])CCSP(=O)(OC)OC (stereo not shown) [Oxydemeton-methyl] | 43

Same assay, conditions: bee brain extract; 1.25 ppb pesticide

Compound | % activity [%]
CCOP(=S)(OCC)Oc1nc(Cl)c(Cl)cc1Cl [Chlorpyrifos] | 34
CCOP(=S)(OCC)SCSP(=S)(OCC)OCC [Ethion] | 65
COP(=S)(OC)Oc1ccc([N+](=O)[O-])cc1 [Methyl parathion] | 40
COC(=O)C=C(C)OP(=O)(OC)OC [Mevinphos] | 48
CC[S+]([O-])CCSP(=O)(OC)OC (stereo not shown) [Oxydemeton-methyl] | 47
CCOP(=S)(OCC)SCSCC [Phorate] | 70

Same assay, conditions: bee brain extract; 2.5 ppb pesticide

Compound | % activity [%]
CCOP(=S)(OCC)Oc1nc(Cl)c(Cl)cc1Cl [Chlorpyrifos] | 24
CCOP(=S)(OCC)SCSP(=S)(OCC)OCC [Ethion] | 37
COP(=S)(OC)Oc1ccc([N+](=O)[O-])cc1 [Methyl parathion] | 23
COC(=O)C=C(C)OP(=O)(OC)OC [Mevinphos] | 24
CC[S+]([O-])CCSP(=O)(OC)OC (stereo not shown) [Oxydemeton-methyl] | 37
CCOP(=S)(OCC)SCSCC [Phorate] | 29

Same assay, conditions: bee brain extract; 3.1 ppb pesticide

Compound | % activity [%]
CNC(=O)Oc1ccccc1OC(C)C [Propoxur] | 62

Same assay, conditions: bee brain extract; 3.125 ppb pesticide

Compound | % activity [%]
CCOP(=S)(OCC)Oc1nc(Cl)c(Cl)cc1Cl [Chlorpyrifos] | 13
CCOP(=S)(OCC)SCCSCC [Disulfoton] | 66
CNC(=O)ON=C(C)SC [Methomyl] | 45
COC(=O)C=C(C)OP(=O)(OC)OC [Mevinphos] | 12
CCOP(=S)(OCC)SCSCC [Phorate] | 23

Same assay, conditions: bee brain extract; 6.25 ppb pesticide

Compound | % activity [%]
CNC(=O)Oc1cccc2c1OC(C)(C)C2 [Carbofuran] | 59
CCOP(=S)(OCC)Oc1nc(Cl)c(Cl)cc1Cl [Chlorpyrifos] | 10
CCOP(=S)(OCC)SCCSCC [Disulfoton] | 47
CCOC(=O)CC(SP(=S)(OC)OC)C(=O)OCC (stereo not shown) [Malathion] | 53
CNC(=O)ON=C(C)SC [Methomyl] | 16
COC(=O)C=C(C)OP(=O)(OC)OC [Mevinphos] | 9
CCOP(=S)(OCC)SCSCC [Phorate] | 8

Same assay, conditions: bee brain extract; 12.5 ppb pesticide

Compound | % activity [%]
CNC(=O)Oc1cccc2c1OC(C)(C)O2 [Bendocarb] | 50
CNC(=O)Oc1cccc2c1OC(C)(C)C2 [Carbofuran] | 41
CCOP(=S)(OCC)SCCSCC [Disulfoton] | 35
CCOC(=O)CC(SP(=S)(OC)OC)C(=O)OCC (stereo not shown) [Malathion] | 50
CNC(=O)ON=C(C)SC [Methomyl] | 20
CCOP(=S)(OCC)SCSCC [Phorate] | 3
CNC(=O)Oc1ccccc1OC(C)C [Propoxur] | 43

Same assay, conditions: bee brain extract; 25 ppb pesticide

Compound | % activity [%]
CNC(=O)Oc1cccc2c1OC(C)(C)O2 [Bendocarb] | 26
CNC(=O)Oc1cccc2c1OC(C)(C)C2 [Carbofuran] | 32
CCOP(=S)(OCC)Oc1cc(C)nc(C(C)C)n1 [Diazinon] | 40
CCOP(=S)(OCC)SCCSCC [Disulfoton] | 19
CCOC(=O)CC(SP(=S)(OC)OC)C(=O)OCC (stereo not shown) [Malathion] | 27
CNC(=O)ON=C(C)SC [Methomyl] | 12
CC[S+]([O-])CCSP(=O)(OC)OC (stereo not shown) [Oxydemeton-methyl] | 21
CNC(=O)Oc1ccccc1OC(C)C [Propoxur] | 44

Same assay, conditions: bee brain extract; 50 ppb pesticide

Compound | % activity [%]
CNC(=O)Oc1cccc2c1OC(C)(C)O2 [Bendocarb] | 18
CNC(=O)Oc1cccc2c1OC(C)(C)C2 [Carbofuran] | 22
CCOC(=O)CC(SP(=S)(OC)OC)C(=O)OCC (stereo not shown) [Malathion] | 27

Same assay, conditions: bee brain extract; 62.5 ppb pesticide

Compound | % activity [%]
CNC(=O)Oc1ccccc1OC(C)C [Propoxur] | 29

Same assay, conditions: bee brain extract; 100 ppb pesticide

Compound | % activity [%]
CNC(=O)Oc1cccc2c1OC(C)(C)O2 [Bendocarb] | 11
CCOP(=S)(OCC)Oc1cc(C)nc(C(C)C)n1 [Diazinon] | 28

Same assay, conditions: bee brain extract; 125.0 ppb pesticide

Compound | % activity [%]
CNC(=O)Oc1ccccc1OC(C)C [Propoxur] | 27

Same assay, conditions: bee brain, Ac-luciferin substrate; 5 min

Compound | I50 (concentration of inhibitor which gives a 50% decrease in enzymatic activity as measured by bioluminescence) [ppb]
CNC(=O)Oc1cccc2c1OC(C)(C)O2 [Bendocarb] | 12
CNC(=O)Oc1cccc2c1OC(C)(C)C2 [Carbofuran] | 8
CCOP(=S)(OCC)Oc1nc(Cl)c(Cl)cc1Cl [Chlorpyrifos] | 1
COP(=O)(OC)OC=C(Cl)Cl [DDVP] | 0.004
CCOP(=S)(OCC)Oc1cc(C)nc(C(C)C)n1 [Diazinon] | 15
CCOP(=S)(OCC)SCCSCC [Disulfoton] | 5
CCOP(=S)(OCC)SCSP(=S)(OCC)OCC [Ethion] | 2
CCOC(=O)CC(SP(=S)(OC)OC)C(=O)OCC (stereo not shown) [Malathion] | 6
CNC(=O)ON=C(C)SC [Methomyl] | 4
COP(=S)(OC)Oc1ccc([N+](=O)[O-])cc1 [Methyl parathion] | 1
COC(=O)C=C(C)OP(=O)(OC)OC [Mevinphos] | 2
COP(=O)(OC)OC(Br)C(Cl)(Cl)Br (stereo not shown) [Naled] | 0.05
CC[S+]([O-])CCSP(=O)(OC)OC (stereo not shown) [Oxydemeton-methyl] | 1
CCOP(=S)(OCC)SCSCC [Phorate] | 2
CNC(=O)Oc1ccccc1OC(C)C [Propoxur] | 10
